# Data reported in patent publication US11485731B2, “Compounds and methods useful in the treatment of a PRMT5-mediated disorder” (ARGONAUT THERAPEUTICS LIMITED, priority 2017, dated 2022).
# Biological target: human PRMT5/MEP50 (Homo sapiens (Human), UniProt O14744)
# Experiment: PRMT5 chemiluminescent assay
# Type: biochemical
# Details: human PRMT5/MEP50 expressed in HEK293 cells; biotinylated histone peptides; Histone H4 monomethyl R3 antibody; chemiluminescent readout
# Description: A PRMT5 chemiluminescent assay was used to measure the IC50 activity of PRMT5 of the compounds of Examples 1A to 7 above. Biotinylated histone peptides were synthesized and attached to 384-well plates. Compound serial dilutions were performed and added to the assay plate. Histone H4 monomethyl R3 antibody was obtained from Abcam. A master mix for each well was prepared and human PRMT5/MEP50 (expressed in HEK293 cells) diluted in assay buffer to a concentration of 5 ng/μL. The reaction was incubated and slowly rotated for 60 minutes at the point of PRMT5/MEP50 addition. The supernatant from the wells was removed and blocking buffer was added to each well and rotated for 10 minutes. The primary antibody was diluted and added to every well for 60 minutes, before it was removed and the wells washed. The horse raddish peroxidase (HRP)-coupled secondary antibody was diluted and added to each well with an incubation time of 30 minutes. The HRP chemiluminescent substrate was added to every well. The plate was read on a Flourstar Omega BMG Labtech instrument (Ortenberg, Germany) and the analysis of IC50 was performed using the Flourstar Omega BMG Labtech software.
# human PRMT5/MEP50, sequence (O14744 whole entry): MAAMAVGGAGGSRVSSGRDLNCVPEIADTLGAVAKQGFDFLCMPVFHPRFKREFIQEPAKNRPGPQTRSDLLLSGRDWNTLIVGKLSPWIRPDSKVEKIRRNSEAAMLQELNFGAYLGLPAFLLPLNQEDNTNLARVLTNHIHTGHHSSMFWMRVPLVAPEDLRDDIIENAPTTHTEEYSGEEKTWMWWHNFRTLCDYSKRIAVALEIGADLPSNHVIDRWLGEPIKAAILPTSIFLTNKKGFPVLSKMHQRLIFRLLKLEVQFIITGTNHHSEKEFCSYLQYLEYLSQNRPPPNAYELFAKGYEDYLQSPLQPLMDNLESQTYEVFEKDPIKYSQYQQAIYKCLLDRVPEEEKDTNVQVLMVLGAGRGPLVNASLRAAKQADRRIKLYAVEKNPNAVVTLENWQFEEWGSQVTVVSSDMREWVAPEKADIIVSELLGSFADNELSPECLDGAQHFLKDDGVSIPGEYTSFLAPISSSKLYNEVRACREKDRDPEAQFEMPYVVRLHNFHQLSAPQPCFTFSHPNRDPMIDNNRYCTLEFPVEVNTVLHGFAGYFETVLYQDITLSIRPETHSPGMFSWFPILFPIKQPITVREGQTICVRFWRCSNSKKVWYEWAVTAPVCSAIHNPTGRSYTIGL
# human PRMT5/MEP50, sequence (Q9BQA1 whole entry partner): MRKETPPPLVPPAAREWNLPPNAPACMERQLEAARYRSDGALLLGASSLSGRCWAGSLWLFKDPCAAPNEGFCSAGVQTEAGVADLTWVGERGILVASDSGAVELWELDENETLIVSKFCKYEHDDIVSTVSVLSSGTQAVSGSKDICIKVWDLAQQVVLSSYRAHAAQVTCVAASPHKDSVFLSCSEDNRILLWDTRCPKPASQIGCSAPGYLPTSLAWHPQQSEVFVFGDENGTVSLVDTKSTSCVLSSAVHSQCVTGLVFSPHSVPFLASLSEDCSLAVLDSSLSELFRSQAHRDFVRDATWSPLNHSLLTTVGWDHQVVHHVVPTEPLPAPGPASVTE
row,IC50 [µM],Structure (SMILES)
1,3.14,"O=C(NC[C@H](O)CN1CCc2ccccc2C1)N1CCCS(=O)(=O)CC1 [Example 1AV, (S)-N-(3-(3,4-dihydroisoquinolin-2(1H)-yl)-2-hydroxypropyl)-1,4-thiazepane-4-carboxamide 1,1-dioxide]"
2,0.012,"O=C(NC[C@H](O)CN1CCc2ccccc2C1)N1CCCC(c2ccc(F)cc2)C1 (stereo partly drawn) [Example 1BU, N-((S)-3-(3,4-dihydroisoquinolin-2(1H)-yl)-2-hydroxypropyl)-3-(4-fluorophenyl)piperidine-1-carboxamide]"
3,2.86,"O=C(NC[C@H](O)CN1CCc2ccccc2C1)N1CCCC(N2CCOCC2)C1 (stereo partly drawn) [Example 1BW, N-((S)-3-(3,4-dihydroisoquinolin-2(1H)-yl)-2-hydroxypropyl)-3-morpholinopiperidine-1-carboxamide]"
4,0.477,"O=C(OCC(O)CN1CCc2ccccc2C1)N1CCSCC1 (stereo not shown) [Example 4A, 3-(3,4-dihydroisoquinolin-2(1H)-yl)-2-hydroxypropyl thiomorpholine-4-carboxylate]"
5,0.634,"O=C(NC[C@H](O)CN1CCc2ccccc2C1)N1CCCC(N2CCSCC2)C1 (stereo partly drawn) [Example 1BX, N-((S)-3-(3,4-dihydroisoquinolin-2(1H)-yl)-2-hydroxypropyl)-3-thiomorpholinopiperidine-1-carboxamide]"
6,0.087,"O=C(NCC(O)CN1CCc2ccccc2C1)N1CCCc2ccccc21 (stereo not shown) [Example 2A, N-(3-(3,4-dihydroisoquinolin-2(1H)-yl)-2-hydroxypropyl)-3,4-dihydroquinoline-1(2H)-carboxamide]"
7,0.027,"O=C(NC[C@H](O)CN1CCc2ccccc2C1)N1CC[C@@H](c2ccccc2)C1 [Example 1CI, (S)-N-((S)-3-(3,4-dihydroisoquinolin-2(1H)-yl)-2-hydroxypropyl)-3-phenylpyrrolidine-1-carboxamide]"
8,0.422,"O=C(NC[C@H](O)CN1CCc2ccccc2C1)N1CCS(=O)(=O)C(c2ccccc2)C1 (stereo partly drawn) [Example 1CG, N-((S)-3-(3,4-dihydroisoquinolin-2(1H)-yl)-2-hydroxypropyl)-2-phenylthiomorpholine-4-carboxamide 1,1-dioxide]"
9,7.33,"O=C(NC[C@H](O)CN1CCc2ccccc2C1)N1CCCOCC1 [Example 1BP, (S)-N-(3-(3,4-dihydroisoquinolin-2(1H)-yl)-2-hydroxypropyl)-1,4-oxazepane-4-carboxamide]"
10,3.94,"CC1(O)CCN(C(=O)NC[C@H](O)CN2CCc3ccccc3C2)CC1 [Example 1BG, (S)-N-(3-(3,4-dihydroisoquinolin-2(1H)-yl)-2-hydroxypropyl)-4-hydroxy-4-methylpiperidine-1-carboxamide]"
11,0.019,"O=C(OC[C@H](O)CN1CCc2ccccc2C1)N1CCC(c2ccccc2)C1 (stereo partly drawn) [Example 4E, (R)-3-(3,4-dihydroisoquinolin-2(1H)-yl)-2-hydroxypropyl 3-phenylpyrrolidine-1-carboxylate]"
12,1.7,"O=C(NCCCN1CCc2ccccc2C1)N1CCCC(c2ccccc2)C1 (stereo not shown) [Example 6B, N-(3-(3,4-dihydroisoquinolin-2(1H)-yl)propyl)-3-phenylpiperidine-1-carboxamide]"
13,0.03,"O=C(NC[C@H](O)CN1CCc2ccccc2C1)N1CCc2ccccc2C1 [Example 1AL, (S)-N-(3-(3,4-dihydroisoquinolin-2(1H)-yl)-2-hydroxypropyl)-3,4-dihydroisoquinoline-2(1H)-carboxamide]"
14,1.1,"O=C(NCC(O)CN1CCc2ccccc2C1)N1CCCC(c2ccccc2)CC1 (stereo not shown) [Example 1CN, N-(3-(3,4-dihydroisoquinolin-2(1H)-yl)-2-hydroxypropyl)-4-phenylazepane-1-carboxamide]"
15,1.5,"O=C(NC[C@@H](O)CN1CCc2ccccc2C1)N1CCc2ccccc2C1 [Example 1AM, (R)-N-(3-(3,4-dihydroisoquinolin-2(1H)-yl)-2-hydroxypropyl)-3,4-dihydroisoquinoline-2(1H)-carboxamide]"
16,0.04,"O=C(NCC(O)CN1CCc2ccccc2C1)N1CCCN(Cc2ccccc2)CC1 (stereo not shown) [Example 1T, 4-benzyl-N-(3-(3,4-dihydroisoquinolin-2(1H)-yl)-2-hydroxypropyl)-1,4-diazepane-1-carboxamide]"
17,0.396,"O=C(NC[C@H](O)CN1CCc2ccccc2C1)N1CCCC(n2cccn2)C1 (stereo partly drawn) [Example 1BK, N-((S)-3-(3,4-dihydroisoquinolin-2(1H)-yl)-2-hydroxypropyl)-3-(1H-pyrazol-1-yl)piperidine-1-carboxamide]"
18,0.015,"O=C(OCC(O)CN1CCc2ccccc2C1)N1CCC(c2ccccc2)C1 (stereo not shown) [Example 3D, 2-hydroxy-3-(1,2,3,4-tetrahydroisoquinolin-2-yl)propyl 3-phenylpyrrolidine-1-carboxylate]"
19,51.8,"CC(=O)N1CCCN(C(=O)NC[C@@H](O)CN2CCc3ccccc3C2)CC1 [Example 1BB, (R)-4-acetyl-N-(3-(3,4-dihydroisoquinolin-2(1H)-yl)-2-hydroxypropyl)-1,4-diazepane-1-carboxamide]"
20,4.44,"O=C(NC[C@H](O)CN1CCc2ccccc2C1)N1CCCC(n2ccnc2)C1 (stereo partly drawn) [Example 1BL, N-((S)-3-(3,4-dihydroisoquinolin-2(1H)-yl)-2-hydroxypropyl)-3-(1H-imidazol-1-yl)piperidine-1-carboxamide]"
21,0.436,"CN1CCCN(C(=O)NCC(O)CN2CCc3ccccc3C2)CC1 (stereo not shown) [Example 1CL, N-(3-(3,4-dihydroisoquinolin-2(1H)-yl)-2-hydroxypropyl)-4-methyl-1,4-diazepane-1-carboxamide]"
22,8.54,"CN(C)C(=O)C1CN(C(=O)NCC(O)CN2CCc3ccccc3C2)C1 (stereo not shown) [Example 1V, N^1-(3-(3,4-dihydroisoquinolin-2(1H)-yl)-2-hydroxypropyl)-N^3,N^3-dimethylazetidine-1,3-dicarboxamide]"
23,2.39,"O=C(NCC(O)CN1CCc2ccccc2C1)N1CCCCCC1 (stereo not shown) [Example 1N, N-[2-hydroxy-3-(1,2,3,4-tetrahydroisoquinolin-2-yl)propyl]azepane-1-carboxamide]"
24,0.311,"O=C(NC[C@H](O)CN1CCc2ccccc2C1)N1CCC(C(=O)N2CCOCC2)CC1 [Example 1AY, (S)-N-(3-(3,4-dihydroisoquinolin-2(1H)-yl)-2-hydroxypropyl)-4-(morpholine-4-carbonyl)piperidine-1-carboxamide]"
25,33.1,"COC(=O)N1CCCN(C(=O)NC[C@@H](O)CN2CCc3ccccc3C2)CC1 [Example 1BC, Methyl (R)-4-((3-(3,4-dihydroisoquinolin-2(1H)-yl)-2-hydroxypropyl)carbamoyl)-1,4-diazepane-1-carboxylate]"
26,3.1,"O=C(NC[C@H](O)CN1CCc2ccccc2C1)N1CCC(N2CCSCC2)C1 (stereo partly drawn) [Example 1CE, N-((S)-3-(3,4-dihydroisoquinolin-2(1H)-yl)-2-hydroxypropyl)-3-thiomorpholinopyrrolidine-1-carboxamide]"
27,0.29,"O=C(NCC(O)CN1CCc2ccccc2C1)N1CCC(c2ccccc2)C1 (stereo not shown) [Example 1A, N-(3-(3,4-dihydroisoquinolin-2(1H)-yl)-2-hydroxypropyl)-3-phenylpyrrolidine-1-carboxamide]"

row,Structure (SMILES),IC50 [µM]
1,"O=C(NC[C@H](O)CN1CCc2ccccc2C1)N1CCC[C@@H](c2ccccc2)C1 [Example 1AN, (S)-N-((S)-3-(3,4-dihydroisoquinolin-2(1H)-yl)-2-hydroxypropyl)-3-phenylpiperidine-1-carboxamide]",0.014
2,"O=C(NC[C@H](O)CN1CCc2ccccc2C1)N1CCSC(c2ccccc2)C1 (stereo partly drawn) [Example 1BJ, N-((S)-3-(3,4-dihydroisoquinolin-2(1H)-yl)-2-hydroxypropyl)-2-phenylthiomorpholine-4-carboxamide]",0.108
3,"O=C(NC[C@H](O)CN1CCc2ccccc2C1)N1CCCC(N2CCCSCC2)C1 (stereo partly drawn) [Example 1CB, N-((S)-3-(3,4-dihydroisoquinolin-2(1H)-yl)-2-hydroxypropyl)-3-(1,4-thiazepan-4-yl)piperidine-1-carboxamide]",0.337
4,"O=C(NC[C@H](O)CN1CCc2ccccc2C1)N1CCS[C@@H](c2ccccc2)C1 (single isomer, unassigned) [Example 5D, (S)-N-((S)-3-(3,4-dihydroisoquinolin-2(1H)-yl)-2-hydroxypropyl)-2-phenylthiomorpholine-4-carboxamide or (R)-N-((S)-3-(3,4-dihydroisoquinolin-2(1H)-yl)-2-hydroxypropyl)-2-phenylthiomorpholine-4-carboxamide]",0.101
5,"O=C(NC[C@H](O)CN1CCc2ccccc2C1)N1CCC[C@H](c2ccccn2)C1 (single isomer, unassigned) [Example 5E, (S)-N-((S)-3-(3,4-dihydroisoquinolin-2(1H)-yl)-2-hydroxypropyl)-3-(pyridin-2-yl)piperidine-1-carboxamide or (R)-N-((S)-3-(3,4-dihydroisoquinolin-2(1H)-yl)-2-hydroxypropyl)-3-(pyridin-2-yl)piperidine-1-carboxamide]",0.081
6,"O=C(OCC(O)CN1CCc2ccccc2C1)N1CC(C(=O)N2C3CCC2COC3)C1 (stereo not shown) [Example 4U, 3-(3,4-dihydroisoquinolin-2(1H)-yl)-2-hydroxypropyl 3-(3-oxa-8-azabicyclo[3.2.1]octane-8-carbonyl)azetidine-1-carboxylate]",2.98
7,"O=C(OC[C@@H](O)CN1CCc2ccccc2C1)N1CCC(C(=O)N2C3CCC2COC3)CC1 [Example 4X, (S)-3-(3,4-dihydroisoquinolin-2(1H)-yl)-2-hydroxypropyl 4-(3-oxa-8-azabicyclo[3.2.1]octane-8-carbonyl)piperidine-1-carboxylate]",0.809
